# Test results taken from patent US20160207994A1, “MODULATORS OF IL-12 AND/OR IL-23 FOR THE PREVENTION OR TREATMENT OF ALZHEIMER'S DISEASE” (UNIVERSITAT ZURICH, priority 2011, published 2016).
# Tests used:
# [1] = system: IL-6, IL-1β IL-23 and TNF-a; settings: cited from earlier work
# [2] = system: IL-12/p40; settings: cited from earlier work
# [3] = system: isolated postnatal microglial cell cultures; experiment: Cytokine gene expression in microglial cell cultures treated with synthetic Aβ1-42; assay type: cell-based; settings: 22.5 μg/ml
# Description: Treatment of isolated postnatal microglial cell cultures with synthetic Aβ1-42 peptides (22.5 μg/ml) induced an almost 6-fold upregulation of IL-12/IL-23p40 after 24 h when compared to unstimulated controls (FIG. 1c).
# Since both in human AD samples as well as in transgenic AD mice, microglia and macrophages surrounding Aβ-plaques are reported to be a major source of inflammatory cytokines, we FACS sorted myeloid brain cells of Alzheimer mice in order to better characterize this inflammatory component. Initially, we assessed the expression of IL-12, IL-23 and TNFα in 4-month-old APPPS1 animals and age matched non-transgenic littermates by quantitative PCR of the two cellular fractions obtained (CD45^+ CD11b^+ and CD45^− CD11b^−). […] In contrast, we observed a robust upregulation of IL-12/IL-23p40 and IL-23p19 in the double positive fraction containing microglia and brain macrophages of APPPS1 mice compared to age-matched littermate controls (FIG. 1b). […] To validate a potential link between IL-12 and IL-23 subunits and Aβ-pathology in APPPS1 transgenic animals—besides their impact in models of CNS autoimmune disease, IL-12/IL-23 have not been described to play a role in neurodegenerative diseases so far—as well as to test, whether inhibition of IL-12 and IL-23 subunits could alter disease progression in AD mice, genetic and applied experiments targeting IL-12 and IL-23 subunits in AD mice were performed.
molecule,measurement,setting,value
"CC/C=C\C[C@H](O)C(O)/C=C/C=C/C=C\C=C\[C@@H](O)C/C=C\CCC(=O)O (stereo partly drawn) [Resolvin D2, (7S, 17S)-7, 16, 17-trihydroxydocosa-4,8, 10, 12, 14, 19-hexaenoic acid]","levels of proinflammatory cytokines, namely IL-6, IL-1β IL-23 and TNF-a",[1],drastically reduces
"CC[C@@H](O)/C=C/C=C\C[C@@H](O)/C=C/C=C/C=C\[C@@H](O)CCCC(=O)O [Resolvin E1, (5S, 12R, 18R)-5, 12, 18-trihydroxyicosa-6,8, 10, 14, 16-pentaenoic acid]","proinflammatory gene expression, i. a. IL-12/p40",[2],dramatically decreases
Aβ1-42 peptides: synthetic Aβ1-42 peptides used to stimulate microglial cell cultures,upregulation of IL-23p19,[3],substantial upregulation
same,upregulation of TNFα,[3],substantial upregulation
same,upregulation of IL-12/IL-23p40 over unstimulated controls,[3]; 24 h,~6 fold
